Patent US12157717B2, “Compounds for the treatment of bovine or swine respiratory disease” (Intervet Inc., priority 2018, dated 2024)
In brackets after ≈: the same amount, converted by molar mass.

Legend:
Format in all cases: cell-based
[1] = tested on: Mannheimia haemolytica MH 13065 (XB0446-6003.9); assay: MIC, broth-microdilution (CLSI), strain MH 13065; details: Mannheimia haemolytica XB0446-6003.9, BRD field isolate
Procedure: (§1) The Minimum inhibitory concentrations (MIC) of compounds according to the invention for a number of veterinary bacterial pathogens were determined by the broth-microdilution method according to CLSI document VETO 1-A4.
(§2) Microdilution trays containing a doubling dilution series of the test compound were used for the tests. The MIC results were interpreted according to the CLSI documents VET01-S3. The lowest concentration of compound at which no visible growth (i.e. no turbidity) detected by the unaided eye was recorded as the MIC.

[2] = tested on: Pasteurella multocida PM 10775 (080130003051); assay: MIC, broth-microdilution (CLSI), strain PM 10775; details: Pasteurella multocida 080130003051, BRD field isolate
Procedure: as §1, §2

[3] = tested on: Mannheimia haemolytica MH 12587 (1071), macrolide-resistance: erm+, E+; assay: MIC, broth-microdilution (CLSI), strain MH 12587; details: Mannheimia haemolytica 1071, BRD field isolate
Procedure: as §1, §2

[4] = tested on: Pasteurella multocida PM 6391 (ATCC 43137); assay: MIC, broth-microdilution (CLSI), strain PM 6391; details: Pasteurella multocida ATCC 43137, reference strain
Procedure: as §1, §2

[5] = tested on: Mannheimia haemolytica MH 6374 (ATCC 33396); assay: MIC, broth-microdilution (CLSI), strain MH 6374; details: Mannheimia haemolytica ATCC 33396, reference strain
Procedure: as §1, §2

[6] = tested on: Mannheimia haemolytica MH 13093 (XB0472-6014.1); assay: MIC, broth-microdilution (CLSI), strain MH 13093; details: Mannheimia haemolytica XB0472-6014.1, BRD field isolate
Procedure: as §1, §2

[7] = tested on: Pasteurella multocida PM 12080 (IV102277-0093); assay: MIC, broth-microdilution (CLSI), strain PM 12080; details: Pasteurella multocida IV102277-0093, BRD field isolate
Procedure: as §1, §2

[8] = tested on: Mannheimia haemolytica MH 10720 (154); assay: MIC, broth-microdilution (CLSI), strain MH 10720; details: Mannheimia haemolytica 154, BRD field isolate
Procedure: as §1, §2

[9] = tested on: Mannheimia haemolytica MH 6357 (M7/2); assay: MIC, broth-microdilution (CLSI), strain MH 6357; details: Mannheimia haemolytica M7/2, reference strain (cattle infection strain)
Procedure: as §1, §2

[10] = tested on: Pasteurella multocida PM 6267 (P 2225 (L386)); assay: MIC, broth-microdilution (CLSI), strain PM 6267; details: Pasteurella multocida P 2225 (L386), reference strain (mouse infection strain)
Procedure: as §1, §2

| Structure (SMILES) | MIC MH 13065 [1] [µM] | MIC PM 10775 [2] [µM] | MIC MH 12587 [3] [µM] | MIC PM 6391 [4] [µM] | MIC MH 6374 [5] [µM] | MIC MH 13093 [6] [µM] | MIC PM 12080 [7] [µM] | MIC MH 10720 [8] [µM] | MIC MH 6357 [9] [µM] | MIC PM 6267 [10] [µM] |
| --- | --- | --- | --- | --- | --- | --- | --- | --- | --- | --- |
| CNC(=O)C(NC(=O)c1ccc(C#Cc2ccc(CNC3CC3)cc2)cc1)C(=O)NO (stereo not shown) [Compound 1] | 0.4 (≈ 0.168 µg/mL) | ≤0.1 | 0.8 (≈ 0.336 µg/mL) | ≤0.1 | 0.4 (≈ 0.168 µg/mL) | 1.6 (≈ 0.673 µg/mL) | ≤0.1 | ≤0.1 | 0.4 (≈ 0.168 µg/mL) | ≤0.1 |
| CNC(=O)C(NC(=O)c1ccc(C#Cc2ccc(CNC3CCC3)cc2)cc1)C(=O)NO (stereo not shown) [Compound 8] | 6.3 (≈ 2.74 µg/mL) | ≤0.1 | 12.5 (≈ 5.43 µg/mL) | 0.4 (≈ 0.174 µg/mL) | 6.3 (≈ 2.74 µg/mL) | 6.3 (≈ 2.74 µg/mL) | 0.4 (≈ 0.174 µg/mL) | 1.6 (≈ 0.695 µg/mL) | 3.1 (≈ 1.35 µg/mL) | ≤0.1 |
| CNC(=O)C(C(=O)NO)N(C)C(=O)c1ccc(C#Cc2ccc(CNCc3nccs3)cc2)cc1 (stereo not shown) [Compound 29] | 6.3 (≈ 3.1 µg/mL) | 0.2 (≈ 0.0983 µg/mL) | 12.5 (≈ 6.14 µg/mL) | 3.1 (≈ 1.52 µg/mL) | 3.1 (≈ 1.52 µg/mL) | 12.5 (≈ 6.14 µg/mL) | 1.6 (≈ 0.787 µg/mL) | 1.6 (≈ 0.787 µg/mL) | 6.3 (≈ 3.1 µg/mL) | 0.8 (≈ 0.393 µg/mL) |
| C#CCNCc1ccc(C#Cc2ccc(C(=O)NC(C(=O)NC)C(=O)NO)cc2)cc1 (stereo not shown) [Compound 20] | 0.2 (≈ 0.0837 µg/mL) | ≤0.1 | 0.8 (≈ 0.335 µg/mL) | ≤0.1 | 0.2 (≈ 0.0837 µg/mL) | 0.4 (≈ 0.167 µg/mL) | ≤0.1 | ≤0.1 | 0.2 (≈ 0.0837 µg/mL) | ≤0.1 |
| CNC(=O)C(C(=O)NO)N(C)C(=O)c1ccc(C#Cc2ccc(CNCCOC)cc2)cc1 (stereo not shown) [Compound 21] | 3.1 (≈ 1.4 µg/mL) | 0.4 (≈ 0.181 µg/mL) | 12.5 (≈ 5.66 µg/mL) | 3.1 (≈ 1.4 µg/mL) | 6.3 (≈ 2.85 µg/mL) | 12.5 (≈ 5.66 µg/mL) | 1.6 (≈ 0.724 µg/mL) | 1.6 (≈ 0.724 µg/mL) | 3.1 (≈ 1.4 µg/mL) | 1.6 (≈ 0.724 µg/mL) |
| C#CCNCc1ccc(C#Cc2ccc(C(=O)N(C)C(C(=O)NC)C(=O)NO)cc2)cc1 (stereo not shown) [Compound 30] | 1.6 (≈ 0.692 µg/mL) | ≤0.1 | 3.1 (≈ 1.34 µg/mL) | 1.6 (≈ 0.692 µg/mL) | 0.8 (≈ 0.346 µg/mL) | 1.6 (≈ 0.692 µg/mL) | 0.8 (≈ 0.346 µg/mL) | 0.4 (≈ 0.173 µg/mL) | 0.8 (≈ 0.346 µg/mL) | 0.4 (≈ 0.173 µg/mL) |
| CNC(=O)C(C(=O)NO)N(C)C(=O)c1ccc(C#Cc2ccc(CNC3CCCC3)cc2)cc1 (stereo not shown) [Compound 26] | 12.5 (≈ 5.78 µg/mL) | 0.4 (≈ 0.185 µg/mL) | 25 (≈ 11.6 µg/mL) | 1.6 (≈ 0.74 µg/mL) | 12.5 (≈ 5.78 µg/mL) | 25 (≈ 11.6 µg/mL) | 1.6 (≈ 0.74 µg/mL) | 3.1 (≈ 1.43 µg/mL) | 6.3 (≈ 2.91 µg/mL) | 0.8 (≈ 0.37 µg/mL) |
| CNC(=O)C(NC(=O)c1ccc(C#Cc2ccc(CNCC3CCCO3)cc2)cc1)C(=O)NO (stereo not shown) [Compound 17] | 3.1 (≈ 1.44 µg/mL) | ≤0.1 | 12.5 (≈ 5.81 µg/mL) | 0.4 (≈ 0.186 µg/mL) | 6.3 (≈ 2.93 µg/mL) | 12.5 (≈ 5.81 µg/mL) | 0.2 (≈ 0.0929 µg/mL) | 0.8 (≈ 0.372 µg/mL) | 3.1 (≈ 1.44 µg/mL) | ≤0.1 |
| CNC(=O)C(C(=O)NO)N(C)C(=O)c1ccc(C#Cc2ccc(CNCc3ccccc3)cc2)cc1 (stereo not shown) [Compound 23] | 1.6 (≈ 0.775 µg/mL) | ≤0.1 | 3.1 (≈ 1.5 µg/mL) | 1.6 (≈ 0.775 µg/mL) | 0.8 (≈ 0.388 µg/mL) | 1.6 (≈ 0.775 µg/mL) | 0.8 (≈ 0.388 µg/mL) | 0.4 (≈ 0.194 µg/mL) | 1.6 (≈ 0.775 µg/mL) | 0.4 (≈ 0.194 µg/mL) |
| C=CCNCc1ccc(C#Cc2ccc(C(=O)NC(C(=O)NC)C(=O)NO)cc2)cc1 (stereo not shown) [Compound 2] | 0.8 (≈ 0.336 µg/mL) | ≤0.1 | 0.8 (≈ 0.336 µg/mL) | 0.4 (≈ 0.168 µg/mL) | 1.6 (≈ 0.673 µg/mL) | 1.6 (≈ 0.673 µg/mL) | ≤0.1 | 0.4 (≈ 0.168 µg/mL) | 0.8 (≈ 0.336 µg/mL) | 0.2 (≈ 0.0841 µg/mL) |
